Source: patent publication US12410185B2, “Compounds targeting mutant calreticulin” (MYELOPRO DIAGNOSTICS AND RESEARCH GmbH, priority 2018, dated 2025)
Read-outs that look alike come from different tables or passages of the source.

Experiments:
CALR mutant cell lines = test: cells; conditions: for IC50: read-out: IC50 in mutant cell lines
Experimental: (§1) Ba/F3 and UT-7-TPO were plated 5.000 cells/well and 16.000 cells/well into 96-well plates with the desirable concentrations of compounds or cytokines added to a total volume of 100 ul. 72 hours later, the CellTiter-Glo luminescent Cell Viability Assay (Promega) was used to determine the cell viability. The luminescent signal was detected by a VICTOR Multilabel Plate Reader (PerkinElmer). Dose response data was analyzed by Graphpad Prism 7.0.
(§2) To further explore the chemical space of the compound, a few hematoxylin analogues were also tested (FIGS. 15 to 17). […] The compounds Protosappanin B (A-4) and RJ002 (B-2) were also tested. […] As a comparison, the clinically used chemotherapeutic drugs hydroxyurea and ruxolitinib were also tested in the cell models.

CALR wild-type cell line = test: 72 h dose response of hematoxylin, analogues and control compounds; assay type: cell-based; conditions: 72 h assay
Experimental: as §1, §2

[1] = solubility in 10 mM stock solution; assay type: physicochemical; conditions: compounds dissolved in DMSO
Experimental: All tested compounds were dissolved in DMSO.
(§3) These included HEM8 (B-18), HEM11 (B-19), HEM30 (B-20), HEM36 (B-26), HEM44 (B-34) and HEM46 (B-36) which were used at 1/10 of the concentration (1 uM for Ba/F3 and 3 uM for UT-7).

Ba/F3 cells = test: cytotoxicity screen of further hematoxylin derivatives; assay type: cell-based, mouse; conditions: 10 uM (1 uM for compounds insoluble in 10 mM stock)
Experimental: (§4) Cytotoxicity screens were performed essentially as described in Example 1.
as §3

UT-7 cells = test: as above; assay type: cell-based; conditions: 30 uM (3 uM for compounds insoluble in 10 mM stock)
Experimental: as §4, §3

[2] = tested on: WT cell line (UT-7 cells); test: IC50 of further hematoxylin derivatives (Table 3); assay type: cell-based; conditions: Homo sapiens
Experimental: as §4

[3] = tested on: mutant cell line (UT-7 cells); test: IC50 of further hematoxylin derivatives (Table 3); assay type: cell-based; conditions: Homo sapiens
Experimental: as §4

[4] = UT7, UT-7 cells, read-out: IC50 WT cell line
[5] = UT7, UT-7 cells, read-out: IC50 mutant cell line

Compound: Oc1ccc2c(c1)OC[C@]1(O)Cc3cc(O)c(O)cc3[C@H]21 [Brazilin (A-2), Brazilin]
- cytotoxic selectivity for mutant vs wild-type cell lines (CALR mutant cell lines): comparable cytotoxic selectivity
- IC50 (CALR mutant cell lines; 72 h): 1.9 µM
- IC50 (CALR wild-type cell line; read-out: IC50 in wild-type cell line): 6.2 µM

Compound: O=C(Oc1cc2c(cc1OC(=O)c1cccc(N3C(=O)/C(=C/c4cccc(F)c4)SC3=S)c1)[C@@H]1c3ccc(OC(=O)c4cccc(N5C(=O)/C(=C/c6cccc(F)c6)SC5=S)c4)c(OC(=O)c4cccc(N5C(=O)/C(=C/c6cccc(F)c6)SC5=S)c4)c3OC[C@]1(O)C2)c1cccc(N2C(=O)/C(=C/c3cccc(F)c3)SC2=S)c1 [HEM8 (B-18)]
- solubility in a 10 mM stock solution [1]: insoluble in a 10 mM stock solution

Compound: O=C(CCN1C(=O)/C(=C/c2ccc(Cl)cc2)SC1=S)Oc1cc2c(cc1OC(=O)CCN1C(=O)/C(=C/c3ccc(Cl)cc3)SC1=S)[C@@H]1c3ccc(OC(=O)CCN4C(=O)/C(=C/c5ccc(Cl)cc5)SC4=S)c(OC(=O)CCN4C(=O)/C(=C/c5ccc(Cl)cc5)SC4=S)c3OC[C@]1(O)C2 [HEM11 (B-19)]
- solubility in a 10 mM stock solution [1]: insoluble in a 10 mM stock solution

Compound: O=C(Oc1cc2c(cc1OC(=O)c1ccc(/C=C3\SC(=S)N(c4ccc(F)cc4)C3=O)cc1)[C@@H]1c3ccc(OC(=O)c4ccc(/C=C5\SC(=S)N(c6ccc(F)cc6)C5=O)cc4)c(OC(=O)c4ccc(/C=C5\SC(=S)N(c6ccc(F)cc6)C5=O)cc4)c3OC[C@]1(O)C2)c1ccc(/C=C2\SC(=S)N(c3ccc(F)cc3)C2=O)cc1 [HEM30 (B-20)]
- selectivity and potency in cytotoxicity screen (Ba/F3 cells): Best results in terms of selectivity and potency
- solubility in a 10 mM stock solution [1]: insoluble in a 10 mM stock solution

Compound: CN1C(=O)/C(=C/c2ccc(C(=O)Oc3cc4c(cc3OC(=O)c3ccc(/C=C5\SC(=S)N(C)C5=O)cc3)[C@@H]3c5ccc(OC(=O)c6ccc(/C=C7\SC(=S)N(C)C7=O)cc6)c(OC(=O)c6ccc(/C=C7\SC(=S)N(C)C7=O)cc6)c5OC[C@]3(O)C4)cc2)SC1=S [HEM32 (B-22)]
- selectivity and potency in cytotoxicity screen (UT-7 cells): Best results in terms of selectivity and potency
- IC50 [2, 4]: 18.8 µM
- IC50 [3, 5]: 16.1 µM

Compound: O=C(Oc1cc2c(cc1OC(=O)c1ccc(Cl)cc1)[C@@H]1c3ccc(OC(=O)c4ccc(Cl)cc4)c(OC(=O)c4ccc(Cl)cc4)c3OC[C@]1(OC(=O)c1ccc(Cl)cc1)C2)c1ccc(Cl)cc1 [HEM36 (B-26)]
- solubility in a 10 mM stock solution [1]: insoluble in a 10 mM stock solution

Compound: CC(C)C(=O)Oc1cc2c(cc1OC(=O)C(C)C)[C@@H]1c3ccc(OC(=O)C(C)C)c(OC(=O)C(C)C)c3OC[C@]1(O)C2 [HEM40 (B-30)]
- selectivity and potency in cytotoxicity screen (UT-7 cells): Best results in terms of selectivity and potency
- IC50 [2, 4]: 14.5 µM
- IC50 [3, 5]: 12 µM

Compound: CCC(=O)Oc1cc2c(cc1OC(=O)CC)[C@@H]1c3ccc(OC(=O)CC)c(OC(=O)CC)c3OC[C@]1(O)C2 [HEM42 (B-32)]
- selectivity and potency in cytotoxicity screen (UT-7 cells): Best results in terms of selectivity and potency
- IC50 [2, 4]: 26.2 µM
- IC50 [3, 5]: 20.8 µM

Compound: O=C(Oc1cc2c(cc1OC(=O)C(Cl)Cl)[C@@H]1c3ccc(OC(=O)C(Cl)Cl)c(OC(=O)C(Cl)Cl)c3OC[C@]1(O)C2)C(Cl)Cl [HEM44 (B-34)]
- solubility in a 10 mM stock solution [1]: insoluble in a 10 mM stock solution

Compound: CC(C)CC(=O)Oc1cc2c(cc1OC(=O)CC(C)C)[C@@H]1c3ccc(OC(=O)CC(C)C)c(OC(=O)CC(C)C)c3OC[C@]1(O)C2 [HEM46 (B-36)]
- solubility in a 10 mM stock solution [1]: insoluble in a 10 mM stock solution

Compound: CCCC(=O)Oc1cc2c(cc1OC(=O)CCC)[C@@H]1c3ccc(OC(=O)CCC)c(OC(=O)CCC)c3OC[C@]1(O)C2 [HEM47 (B-37)]
- selectivity and potency in cytotoxicity screen (UT-7 cells): Best results in terms of selectivity and potency
- IC50 ([2]; UT7, read-out: IC50 WT cell line): 14.7 µM
- IC50 ([3]; UT7, read-out: IC50 mutant cell line): 12.4 µM

Compound: CC(C)(C)C(=O)Oc1cc2c(cc1OC(=O)C(C)(C)C)[C@@H]1c3ccc(OC(=O)C(C)(C)C)c(OC(=O)C(C)(C)C)c3OC[C@]1(O)C2 [HEM48 (B-38)]
- selectivity and potency in cytotoxicity screen (Ba/F3 cells): Best results in terms of selectivity and potency

Compound: NC(=O)NO [Hydroxyurea, reference compound]
- cytotoxic selectivity for mutant vs wild-type cell lines (CALR mutant cell lines): did not show any selective killing effect

Compound: CC(=O)Oc1cc2c(cc1OC(C)=O)[C@@H]1c3ccc(OC(C)=O)c(OC(C)=O)c3OC[C@]1(OC(C)=O)C2 [L-HEM1 (B-1)]
- cytotoxic selectivity for mutant vs wild-type cell lines (CALR mutant cell lines): compromise both potency and selectivity

Compound: COc1cc2c(cc1OC)C1c3ccc(OC)c(OC)c3OCC1(O)C2 (centres unmarked) [NSC7251 (A-5)]
- cytotoxic selectivity for mutant vs wild-type cell lines (CALR mutant cell lines): compromise both potency and selectivity

Compound: N#CC[C@H](C1CCCC1)n1cc(-c2ncnc3[nH]ccc23)cn1 [ruxolitinib, Ruxolitinib, reference compound]
- cytotoxic selectivity for mutant vs wild-type cell lines (CALR mutant cell lines): mild selective effect
- IC50 (CALR mutant cell lines; 72 h): 0.195 µM
- IC50 reduction in the mutant cell lines compared to wild-type cells (CALR mutant cell lines; 72 h assay): about 2 fold
- IC50 (CALR wild-type cell line; read-out: IC50 in wild-type cells): 0.4 µM

Compound: Hematein [Hematein (A-3)]
- cytotoxic selectivity for mutant vs wild-type cell lines (CALR mutant cell lines): retained the cytotoxic selectivity
- IC50 (CALR mutant cell lines; 72 h assay): 7.5 µM
